US20060263870A1, “Hydrocarbon processing method and hydrocarbon processing system” (NIHON UNIVERSITY, priority 2005, published 2006)

Columns and labels:
Type in all cases: cell-based
[1] = system: Rhodococcus rhodochrous S-2; assay: Treatment of various hydrocarbons: growth and localization of S-2 in organic solvent/IB medium bilayer culture; settings: hydrocarbon 5% (v/v) in IB medium, 28° C., 110 rpm, third day of culturing
Procedure: (§1) IB liquid medium was prepared as shown below.
(§2) As n-alkanes, n-hexane (C6), n-octane (C8), n-nonane (C9), n-decane (C10), n-undecane (C11), n-dodecane (C12), n-tridecane (C13), n-tetradecane (C14), n-pentadecane (C15), n-hexadecane (C16), n-heptadecane (C17), and n-octadecane (C18) were used.
(§3) As test strains, Rhodococcus erythropolis PR-4 and Rhodococcus rhodochrous S-2 were used.
(§4) On the third day after the start of culturing, the growth status of the test bacteria and sites where the test bacteria had localized were observed. When the test bacteria were present in the organic solvent, they were labeled “inside” and when they were present on the surface of the organic solvent, they were labeled “surface.” The results are shown in Table 1.

[2] = system: Rhodococcus erythropolis PR-4; assay: Treatment of various hydrocarbons: growth and localization of PR-4 in organic solvent/IB medium bilayer culture; settings: hydrocarbon 5% (v/v) in IB medium, 28° C., 110 rpm, third day of culturing
Procedure: as §1, §2, §3, §4

[3] = system: Rhodococcus erythropolis PR-4; assay: Investigation of Rhodococcus erythropolis PR-4 adaptation (two-stage culture with different hydrocarbons); parameters: key: ±: growth is shown at interface of hydrocarbon and IB liquid culture medium; +: growth is shown in hydrocarbon; settings: pristane (C19) into dodecane (C12): PR-4 first cultured 3 days with pristane, then with dodecane 5% (v/v); third day

For `CCCCCCCC` [n-octane], the S-2 growth [1] was “−” and the PR-4 growth [2] was “−”.

`CCCCCCCCCCCCCC` [n-tetradecane] was tested, and the S-2 growth [1] was “±” and the PR-4 growth [2] was “+”.

With `CCCCCCCCCCCCCCCC` [n-hexadecane] the S-2 growth [1] was “±” and the PR-4 growth [2] was “+”.

With `CCCCCC` [n-hexane] the S-2 growth [1] was “−” and the PR-4 growth [2] was “−”.

In the case of `CC(C)CCCC(C)CCCC(C)CCCCC(C)CCCC(C)CCCC(C)C` (stereo not drawn) [n-squalane, squalane], the S-2 growth [1] is reported as “±” and the PR-4 growth [2] is reported as “+”.

For `CCCCCCCCCC` [n-decane], the S-2 growth [1] was “−” and the PR-4 growth [2] was “±”.

For `CCCCCCCCCCCC` [n-dodecane], the growth [3] was “+”, the S-2 growth [1] was “−” and the PR-4 growth [2] was “±”.
